Source: publication PMC12140300, “Development of Carbon‐11 Labeled Pyrimidine Derivatives as Novel Positron Emission Tomography (PET) Agents Enabling Brain Sigma‐1 Receptor Imaging” (Advanced Science, 2025)

Assays:
[1] = biological target: T1, Alpha2B (Homo sapiens, UniProt P18089); assay: PDSP radioligand assay; assay type: binding
T1 sequence (P18089 1-450): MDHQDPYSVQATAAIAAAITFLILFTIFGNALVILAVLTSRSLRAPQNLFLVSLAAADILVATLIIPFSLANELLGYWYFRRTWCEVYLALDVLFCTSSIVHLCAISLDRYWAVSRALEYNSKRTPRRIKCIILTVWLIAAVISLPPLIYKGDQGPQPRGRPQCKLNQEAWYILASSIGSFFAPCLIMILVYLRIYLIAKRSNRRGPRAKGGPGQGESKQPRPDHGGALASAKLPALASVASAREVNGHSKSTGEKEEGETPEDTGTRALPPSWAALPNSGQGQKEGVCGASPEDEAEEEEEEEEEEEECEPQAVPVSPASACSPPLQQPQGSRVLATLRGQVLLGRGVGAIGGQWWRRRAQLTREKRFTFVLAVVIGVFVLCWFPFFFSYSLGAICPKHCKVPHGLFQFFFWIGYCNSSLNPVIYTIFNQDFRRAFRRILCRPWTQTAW
Description: The ex vivo binding affinities of σRs of CNY‐01 and CNY‐02 were measured using a competitive radioligand binding assay.^[ [35] ^]
Details of individual binding assay conditions and protocols are available at the NIMH PDSP website: https://pdsp.unc.edu/pdspweb/.

[2] = biological target: T2, M4 (Homo sapiens, UniProt P08173); assay: PDSP radioligand assay; assay type: binding
T2 construct: purchased NIMH Psychoactive Drug Screening Program (PDSP)

[3] = biological target: T3, σ1R (Mus musculus, UniProt O55242); assay: Mice PET/CT imaging, baseline and self-blocking; assay type: in vivo, C57BL/6 mice
T3 construct: The PET/CT studies in mice followed previously reported procedures; from tissue; host or cells: mouse brain in vivo (C57BL/6 wild type; 5xFAD transgenic)
Description: PET/CT imaging studies of [^11C]CNY‐01 and [^11C]CNY‐02 were performed in male C57BL/6 mice. […] The whole‐brain time‐activity curve (TAC) of each tracer was generated. […] To investigate the binding specificity of [^11C]CNY‐01 and [^11C]CNY‐02, blocking studies were carried out by pre‐administrating mice with corresponding unlabeled ligands. […] This is due to the receptors in peripheral tissues being occupied by CNY‐01, leading to more radiotracer entering the brain and quickly washing out. […] Of note, the TACs show an increase in brain tracer uptake during the blocking studies, which could be attributed to peripheral blocking effects. To address this, we normalized the brain uptake data to the maximum radioactivity observed in the blood (input function). This normalization allowed us to account for peripheral changes in tracer availability.
Figure 3 Mice PET/CT study with [^11C]CNY‐01 and [^11C]CNY‐02. A) Representative baseline and blocking (pre‐treated with 1.0 mg kg^−1 CNY‐01) PET/CT images of [^11C]CNY‐01 focused on the brain (summed 30‒60 min, n = 4). B) Whole brain time‐activity curves of [^11C]CNY‐01 for baseline and blocking mice. C) The normalized baseline and blocking TACs of [^11C]CNY‐01 (normalized the brain uptake curves with the maximum radioactivity in the blood at each time point). D) Representative baseline and blocking (pre‐treated with 1.0 mg kg^−1 CNY‐02) PET/CT images of [^11C]CNY‐02 focused on the brain (summed 30‒60 min, n = 4). E) Whole brain time‐activity curves of [^11C]CNY‐02 for baseline and blocking mice. F) The normalized baseline and blocking TACs of [^11C]CNY‐02 (normalized the brain uptake curves with the maximum radioactivity in the blood at each time point). Data were presented as mean ± standard error of the mean (SEM). Quantification of results was performed using Student's t‐test (***p < 0.0001).
The PET/CT studies in mice followed previously reported procedures with minor modifications.^[ [53], [54] ^] Mice (wild‐type: C57BL/6, male, 6‐month‐old; AD transgenic: 5xFAD, male, 6‐month‐old, n = 4 for each group) were anesthetized with inhalational isoflurane (Patterson Vet Supply, Inc., Greeley, CO, USA) at 2.0% in a carrier of 2 L min^−1 medical oxygen, and maintained at 1.0% isoflurane during the imaging scan. Mice were injected with radiotracer (200 µL) via lateral tail vein catheterization at the start of the dynamic PET scan (Gamma Medica, Northridge, CA, USA). For blocking studies, the blocking agent was administered via the tail vein 5 min before radiotracer injection. Dynamic PET acquisition lasted 60 min and was followed by computed tomography (CT) for anatomic co‐registration. […] Reconstructed images were exported from the scanner in DICOM format and were analyzed using PMOD (PMOD 4.01).

[4] = biological target: T3, σ1R; assay: PET/CT imaging in 5xFAD transgenic and WT mice; assay type: in vivo, 5xFAD mice; conditions: 6-month-old male mice, PET/CT 30–60 min
Excerpt: Numerous studies have shown that σ 1R is abnormally expressed in the AD brain, and targeting σ 1R becomes a promising strategy for diagnosis and treatment of AD.^[ [11], [49] ^] To evaluate the diagnostic potential of [^11C]CNY‐01 for AD and its potential application in studying the relationship between the σ 1R and AD pathology, we conducted PET imaging studies on 5xFAD transgenic mice model and the corresponding wild‐type (WT) mice. […] Of particular note, brain regions with relatively high σ 1R expression observed higher reduction of radioactivity uptake, such as the striatum, hippocampus, and cerebellum, indicating a decrease in σ 1R expression in the brain under AD pathological conditions, consistent with previous reports (Figure 5B).^[ [11], [49], [50] ^]
Figure 5 PET/CT imaging studies of [^11C]CNY‐01 in WT and 5xFAD mouse model. A) Representative PET/CT images (30–60 min) focused on the WT and 5xFAD mice brain. (n = 4). […] Data were presented as mean ± standard error of the mean (SEM). Quantification of results was performed using Student's t‐test (****p < 0.0001, ***p < 0.001, **p < 0.01, […]).
The PET/CT studies in mice followed previously reported procedures with minor modifications.^[ [53], [54] ^] […] Reconstructed images were exported from the scanner in DICOM format and were analyzed using PMOD (PMOD 4.01).

T3 sequence (O55242 whole entry): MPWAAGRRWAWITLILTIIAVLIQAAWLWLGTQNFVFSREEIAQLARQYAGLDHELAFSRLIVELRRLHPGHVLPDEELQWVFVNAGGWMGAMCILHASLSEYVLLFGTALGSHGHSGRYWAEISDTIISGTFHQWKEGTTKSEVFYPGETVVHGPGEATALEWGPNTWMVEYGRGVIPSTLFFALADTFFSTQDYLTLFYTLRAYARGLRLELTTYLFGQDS
T2 sequence (P08173 whole entry): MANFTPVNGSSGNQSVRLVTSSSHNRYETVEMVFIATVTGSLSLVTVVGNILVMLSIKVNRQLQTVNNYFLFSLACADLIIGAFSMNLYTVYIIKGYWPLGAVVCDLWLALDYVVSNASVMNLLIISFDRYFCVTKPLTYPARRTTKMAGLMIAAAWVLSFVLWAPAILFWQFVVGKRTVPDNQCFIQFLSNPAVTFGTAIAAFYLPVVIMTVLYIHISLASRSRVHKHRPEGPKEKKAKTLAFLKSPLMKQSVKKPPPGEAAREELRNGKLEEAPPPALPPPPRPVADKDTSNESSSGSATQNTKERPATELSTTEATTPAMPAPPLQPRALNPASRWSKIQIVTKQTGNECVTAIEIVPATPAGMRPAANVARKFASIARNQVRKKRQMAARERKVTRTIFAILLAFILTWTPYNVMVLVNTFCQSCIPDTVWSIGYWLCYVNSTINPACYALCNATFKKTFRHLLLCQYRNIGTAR

Cc1nc(-c2ccc(Cl)cc2)nc(OCCCN2CCN(C)CC2)c1Cl [CNY-02, 5‐chloro‐2‐(4‐chlorophenyl)‐4‐methyl‐6‐(3‐(4‐methylpiperazin‐1‐yl)propoxy)pyrimidine]
Ki [1]: 3390 nM | inhibition at 10 µM [1]: 68.4% | inhibition at 10 µM [2]: 31.1%

COc1ccc(-c2nc(C)c(Cl)c(OCCCN3CCCCC3)n2)cc1 [CNY-01, 5‐chloro‐2‐(4‐methoxyphenyl)‐4‐methyl‐6‐(3‐(piperidin‐1‐yl)propoxy)pyrimidine]
Ki [1]: 1350 nM | inhibition at 10 µM [1]: 93.1% | inhibition at 10 µM [2]: 20.6%

Cc1nc(-c2ccc(O[11CH3])cc2)nc(OCCCN2CCCCC2)c1Cl [[^11C]CNY-01]
maximum standard uptake value (SUV) in the brain ([3]; male C57BL/6 mice, baseline PET/CT): 1.3 | blocking effect, brain uptake normalized to maximum radioactivity in the blood ([3]; pre-treated with 1.0 mg kg^−1 of the corresponding unlabeled ligand): significant blocking effect | brain uptake in 5xFAD mice compared to WT mice [4]: significantly lower uptake
